Data: PubChem BioAssay AID2060900 (Molecular Pharmacology Branch, DTP, NCI, 2025)

What follows are compounds tested on 521955-158-R2-J5-PDC complex spheroids, viability (assay: Anticancer human tumor 521955-158-R2-J5-PDC patient-derived pancreatic carcinoma cell line growth inhibition [RAS]). Conditions: curve of first compound; second compound 1 µM.
In short: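 Multi-cell-type spheroids: tumor cells plus HUVEC endothelial cells and mesenchymal stem cells. RAS-pathway inhibitors were combined with targeted agents, each dosed in half-log steps down from clinical Cmax, or from 10 microM when Cmax was unknown.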
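Also: compound exposure lasted seven days before the viability read.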
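For viability, T/C in this document: spheroids also contain HUVEC endothelial cells and mesenchymal stem cells as stroma.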

**Q.** CC(C)n1nc(-c2ccc3oc(N)nc3c2)c2c(N)ncnc21 + C=CC(=O)N1CCN(c2nc(OCC3CCCN3C)nc3c(F)c(-c4nc(N)cc(C)c4C(F)(F)F)c(Cl)cc23)C(C)C1 was tested. Which IC50 did it give?
**A.** 27.3 nM

**Q.** With CC(Nc1ccc2c(c1)OCCn1cc(N3C(=O)OCC3C(F)F)nc1-2)C(N)=O (stereo unspecified) + C=CC(=O)N1CCN(c2nc(OCC3CCCN3C)nc3c(F)c(-c4nc(N)cc(C)c4C(F)(F)F)c(Cl)cc23)C(C)C1 as the compound, how does the IC50 read?
**A.** 180 nM

**Q.** With C[C@@H](NC(=O)c1ncnc(N)c1Cl)c1ncc(C(=O)Nc2cc(C(F)(F)F)c(Cl)cn2)s1 + C=CC(=O)N1CCN(c2nc(OCC3CCCN3C)nc3c(F)c(-c4nc(N)cc(C)c4C(F)(F)F)c(Cl)cc23)C(C)C1 as the compound, how does the IC50 read?
**A.** 6750 nM

**Q.** O=C(c1ccc(F)c(F)c1Nc1ccc(I)cc1F)N1CC(O)([C@@H]2CCCCN2)C1 + C=CC(=O)N1CCN(c2nc(OCC3CCCN3C)nc3c(F)c(-c4nc(N)cc(C)c4C(F)(F)F)c(Cl)cc23)C(C)C1 was tested. Which IC50 did it give?
**A.** 26.9 nM

Same assay, conditions: second compound 0.00316 µM; first compound 0.000316 µM; stronger effect = lower value

**Q.** CC(C)n1nc(-c2ccc3oc(N)nc3c2)c2c(N)ncnc21 + C=CC(=O)N1CCN(c2nc(OCC3CCCN3C)nc3c(F)c(-c4nc(N)cc(C)c4C(F)(F)F)c(Cl)cc23)C(C)C1 was tested. Which viability, T/C did it give?
**A.** 103%

Same assay, conditions: second compound 0.00316 µM; first compound 0.001 µM; stronger effect = lower value

**Q.** How did the viability, T/C turn out when CC(C)n1nc(-c2ccc3oc(N)nc3c2)c2c(N)ncnc21 + C=CC(=O)N1CCN(c2nc(OCC3CCCN3C)nc3c(F)c(-c4nc(N)cc(C)c4C(F)(F)F)c(Cl)cc23)C(C)C1 was run?
**A.** 77.8%

Same assay, conditions: second compound 0.00316 µM; first compound 0.00316 µM; stronger effect = lower value

**Q.** With CC(C)n1nc(-c2ccc3oc(N)nc3c2)c2c(N)ncnc21 + C=CC(=O)N1CCN(c2nc(OCC3CCCN3C)nc3c(F)c(-c4nc(N)cc(C)c4C(F)(F)F)c(Cl)cc23)C(C)C1 as the compound, how does the viability, T/C read?
**A.** 95.7%

**Q.** How did the viability, T/C turn out when O=C(c1ccc(F)c(F)c1Nc1ccc(I)cc1F)N1CC(O)([C@@H]2CCCCN2)C1 + C=CC(=O)N1CCN(c2nc(OCC3CCCN3C)nc3c(F)c(-c4nc(N)cc(C)c4C(F)(F)F)c(Cl)cc23)C(C)C1 was run?
**A.** 93%

Same assay, conditions: second compound 0.00316 µM; first compound 0.01 µM; stronger effect = lower value

**Q.** For CC(C)n1nc(-c2ccc3oc(N)nc3c2)c2c(N)ncnc21 + C=CC(=O)N1CCN(c2nc(OCC3CCCN3C)nc3c(F)c(-c4nc(N)cc(C)c4C(F)(F)F)c(Cl)cc23)C(C)C1, which viability, T/C is on record?
**A.** 79.1%

**Q.** How did the viability, T/C turn out when O=C(c1ccc(F)c(F)c1Nc1ccc(I)cc1F)N1CC(O)([C@@H]2CCCCN2)C1 + C=CC(=O)N1CCN(c2nc(OCC3CCCN3C)nc3c(F)c(-c4nc(N)cc(C)c4C(F)(F)F)c(Cl)cc23)C(C)C1 was run?
**A.** 58%

Same assay, conditions: second compound 0.00316 µM; first compound 0.0316 µM; stronger effect = lower value

**Q.** CC(C)NCC(C(=O)N1CCN(c2ncnc3c2C(C)CC3O)CC1)c1ccc(Cl)cc1 (stereo unspecified) + C=CC(=O)N1CCN(c2nc(OCC3CCCN3C)nc3c(F)c(-c4nc(N)cc(C)c4C(F)(F)F)c(Cl)cc23)C(C)C1 was tested. Which viability, T/C did it give?
**A.** 95.9%

**Q.** CC(C)n1nc(-c2ccc3oc(N)nc3c2)c2c(N)ncnc21 + C=CC(=O)N1CCN(c2nc(OCC3CCCN3C)nc3c(F)c(-c4nc(N)cc(C)c4C(F)(F)F)c(Cl)cc23)C(C)C1 was tested. Which viability, T/C did it give?
**A.** 43.5%

**Q.** How did the viability, T/C turn out when CC(Nc1ccc2c(c1)OCCn1cc(N3C(=O)OCC3C(F)F)nc1-2)C(N)=O (stereo unspecified) + C=CC(=O)N1CCN(c2nc(OCC3CCCN3C)nc3c(F)c(-c4nc(N)cc(C)c4C(F)(F)F)c(Cl)cc23)C(C)C1 was run?
**A.** 66.7%

**Q.** For C[C@@H](NC(=O)c1ncnc(N)c1Cl)c1ncc(C(=O)Nc2cc(C(F)(F)F)c(Cl)cn2)s1 + C=CC(=O)N1CCN(c2nc(OCC3CCCN3C)nc3c(F)c(-c4nc(N)cc(C)c4C(F)(F)F)c(Cl)cc23)C(C)C1, which viability, T/C is on record?
**A.** 105%

**Q.** O=C(c1ccc(F)c(F)c1Nc1ccc(I)cc1F)N1CC(O)([C@@H]2CCCCN2)C1 + C=CC(=O)N1CCN(c2nc(OCC3CCCN3C)nc3c(F)c(-c4nc(N)cc(C)c4C(F)(F)F)c(Cl)cc23)C(C)C1 was tested. Which viability, T/C did it give?
**A.** 48%

Same assay, conditions: second compound 0.00316 µM; first compound 0.1 µM; stronger effect = lower value

**Q.** How did the viability, T/C turn out when CC(C)NCC(C(=O)N1CCN(c2ncnc3c2C(C)CC3O)CC1)c1ccc(Cl)cc1 (stereo unspecified) + C=CC(=O)N1CCN(c2nc(OCC3CCCN3C)nc3c(F)c(-c4nc(N)cc(C)c4C(F)(F)F)c(Cl)cc23)C(C)C1 was run?
**A.** 93.2%

**Q.** How did the viability, T/C turn out when CC(C)n1nc(-c2ccc3oc(N)nc3c2)c2c(N)ncnc21 + C=CC(=O)N1CCN(c2nc(OCC3CCCN3C)nc3c(F)c(-c4nc(N)cc(C)c4C(F)(F)F)c(Cl)cc23)C(C)C1 was run?
**A.** 34.5%

**Q.** With CC(Nc1ccc2c(c1)OCCn1cc(N3C(=O)OCC3C(F)F)nc1-2)C(N)=O (stereo unspecified) + C=CC(=O)N1CCN(c2nc(OCC3CCCN3C)nc3c(F)c(-c4nc(N)cc(C)c4C(F)(F)F)c(Cl)cc23)C(C)C1 as the compound, how does the viability, T/C read?
**A.** 70.9%

**Q.** C[C@@H](NC(=O)c1ncnc(N)c1Cl)c1ncc(C(=O)Nc2cc(C(F)(F)F)c(Cl)cn2)s1 + C=CC(=O)N1CCN(c2nc(OCC3CCCN3C)nc3c(F)c(-c4nc(N)cc(C)c4C(F)(F)F)c(Cl)cc23)C(C)C1 was tested. Which viability, T/C did it give?
**A.** 90.8%

**Q.** Which viability, T/C does the source give for O=C(c1ccc(F)c(F)c1Nc1ccc(I)cc1F)N1CC(O)([C@@H]2CCCCN2)C1 + C=CC(=O)N1CCN(c2nc(OCC3CCCN3C)nc3c(F)c(-c4nc(N)cc(C)c4C(F)(F)F)c(Cl)cc23)C(C)C1 here?
**A.** 36.6%

Same assay, conditions: second compound 0.00316 µM; first compound 0.316 µM; stronger effect = lower value

**Q.** How did the viability, T/C turn out when CC(C)NCC(C(=O)N1CCN(c2ncnc3c2C(C)CC3O)CC1)c1ccc(Cl)cc1 (stereo unspecified) + C=CC(=O)N1CCN(c2nc(OCC3CCCN3C)nc3c(F)c(-c4nc(N)cc(C)c4C(F)(F)F)c(Cl)cc23)C(C)C1 was run?
**A.** 99%

**Q.** CC(Nc1ccc2c(c1)OCCn1cc(N3C(=O)OCC3C(F)F)nc1-2)C(N)=O (stereo unspecified) + C=CC(=O)N1CCN(c2nc(OCC3CCCN3C)nc3c(F)c(-c4nc(N)cc(C)c4C(F)(F)F)c(Cl)cc23)C(C)C1 was tested. Which viability, T/C did it give?
**A.** 43%

**Q.** Which viability, T/C does the source give for C[C@@H](NC(=O)c1ncnc(N)c1Cl)c1ncc(C(=O)Nc2cc(C(F)(F)F)c(Cl)cn2)s1 + C=CC(=O)N1CCN(c2nc(OCC3CCCN3C)nc3c(F)c(-c4nc(N)cc(C)c4C(F)(F)F)c(Cl)cc23)C(C)C1 here?
**A.** 103%

**Q.** O=C(c1ccc(F)c(F)c1Nc1ccc(I)cc1F)N1CC(O)([C@@H]2CCCCN2)C1 + C=CC(=O)N1CCN(c2nc(OCC3CCCN3C)nc3c(F)c(-c4nc(N)cc(C)c4C(F)(F)F)c(Cl)cc23)C(C)C1 was tested. Which viability, T/C did it give?
**A.** 29.8%

Same assay, conditions: second compound 0.00316 µM; first compound 1 µM; stronger effect = lower value

**Q.** With CC(C)NCC(C(=O)N1CCN(c2ncnc3c2C(C)CC3O)CC1)c1ccc(Cl)cc1 (stereo unspecified) + C=CC(=O)N1CCN(c2nc(OCC3CCCN3C)nc3c(F)c(-c4nc(N)cc(C)c4C(F)(F)F)c(Cl)cc23)C(C)C1 as the compound, how does the viability, T/C read?
**A.** 79.7%

**Q.** For CC(Nc1ccc2c(c1)OCCn1cc(N3C(=O)OCC3C(F)F)nc1-2)C(N)=O (stereo unspecified) + C=CC(=O)N1CCN(c2nc(OCC3CCCN3C)nc3c(F)c(-c4nc(N)cc(C)c4C(F)(F)F)c(Cl)cc23)C(C)C1, which viability, T/C is on record?
**A.** 64.7%
